The record followed here is patent US6337344B1, “Indole derivatives as inhibitors or factor Xa” (Aventis Pharma Deutschland GmbH, priority 1997, dated 2002).

For orientation: melting point means the temperature of the solid-liquid transition.

Structures can show the parent of a compound that is named as a salt.

In the case of `C[N+](C)(C)c1ccc(CNC(=O)c2cc3c(OCc4ccccc4)cccc3n2Cc2cccc(C(=N)N)c2)cc1.[I-]` [Example 68, [4-({[1-(3-Amidino-benzyl)-4-benzyloxy-1H-indole-2-carbonyl]-amino}-methyl)-phenyl]-trimethyl-ammonium iodide hydroiodide], the melting point was 158 °C (dec.). Then `N=C(N)c1ccc(Cn2c(C(=O)NC(c3ccccc3)c3ccncc3)cc3ccccc32)cc1.O=C(O)C(F)(F)F.O=C(O)C(F)(F)F` (racemic), with 150 °C; and `C[N+](C)(C)c1ccc(CNC(=O)c2c(Cl)c3ccccc3n2Cc2cccc(C(=N)N)c2)cc1` (as salt: trifluoroacetic acid salt) [Example 106], with 57 °C. As to `C[N+](C)(C)c1ccc(CNC(=O)c2cc3cc([N+](=O)[O-])ccc3n2Cc2cccc(C(=N)N)c2)cc1.O=C(O)C(F)(F)F.O=C([O-])C(F)(F)F`, the melting point is 120 °C (dec.). For `C[N+](C)(C)c1ccc(CNC(=O)c2cc3cc(O)ccc3n2Cc2cccc(C(=N)N)c2)cc1.O=C(O)C(F)(F)F.O=C([O-])C(F)(F)F`, the melting point was 78 °C (dec.). Regarding `N=C(N)c1cccc(Cn2c(C(=O)NCc3ccc(Cl)cc3)cc3ccccc32)c1.O=C(O)C(F)(F)F`, the melting point is 230 °C (dec.). `COc1cccc2c1cc(C(=O)NCCc1ccc(O)cc1)n2Cc1cccc(C(=N)N)c1.O=C(O)C(F)(F)F` had a melting point of 140 to 142 °C. As to `CC(=O)O.CC(=O)[O-].C[N+](C)(C)c1ccc(CNC(=O)c2cc3c(Br)cccc3n2Cc2cccc(C(=N)N)c2)cc1`, the melting point is 145 °C (dec.). Compound `N=C(N)c1cccc(COC(=O)c2cc3ccccc3n2Cc2cccc(C(=N)N)c2)c1.O=C(O)C(F)(F)F.O=C(O)C(F)(F)F` returned a melting point of 258 °C.

Regarding `COc1cccc2c1cc(C(=O)NCc1ccc(O)cc1)n2Cc1cccc(C(=N)N)c1.Cl`, the melting point is 202 °C (dec.).

As to `N=C(N)c1cccc(CNC(=O)c2cc3cc(O)ccc3n2Cc2cccc(C(=N)N)c2)c1.O=C(O)C(F)(F)F.O=C(O)C(F)(F)F`, the melting point was 125 °C (dec.). `CN(C)c1ccc(CNC(=O)c2cn(Cc3cccc(C(=N)N)c3)c3ccccc23)cc1.O=C(O)C(F)(F)F.O=C(O)C(F)(F)F` displayed a melting point of 92 to 96 °C. Consider `C=CC[N+](C)(C)c1ccc(CNC(=O)c2cc3cc(F)ccc3n2Cc2cccc(C(=N)N)c2)cc1.CC(=O)O.[Cl-]`, for which the melting point was 133 °C (dec.). The compound `COc1cccc2c1cc(C(=O)NC(c1ccccc1)c1ccncc1)n2Cc1cccc(C(=N)N)c1.O=C(O)C(F)(F)F.O=C(O)C(F)(F)F` (racemic) yielded a melting point of 105 °C. The result for `N=C(N)c1ccc(Cn2c(C(=O)NCc3ccc(Cl)cc3)cc3ccccc32)cc1.O=C(O)C(F)(F)F` reads 268 °C (dec.). Compound `N=C(N)c1cccc(CNC(=O)c2cc3c(O)cccc3n2Cc2cccc(C(=N)N)c2)c1.O=C(O)C(F)(F)F.O=C(O)C(F)(F)F` [Example 77, 1-(3-Amidino-benzyl)-4-hydroxy-1H-indole-2-carboxylic acid 3-amidino-benzylamide trifluoroacetic acid salt] yielded a melting point of 128 to 131 °C. The result for `C[N+](C)(C)c1ccc(CNC(=O)c2cn(Cc3cccc(C(=N)N)c3)c3ccccc23)cc1.O=C(O)C(F)(F)F.O=C([O-])C(F)(F)F` reads 177 °C (dec.); that for `CC(=O)O.CC(=O)[O-].Cc1cccc2c1cc(C(=O)NCc1ccc([N+](C)(C)C)cc1)n2Cc1cccc(C(=N)N)c1`, 89 °C (dec.). Compound `COc1cccc2c1cc(C(=O)NCCc1ccncc1)n2Cc1cccc(/C(N)=N/O)c1.Cl.Cl` displayed a melting point of 215 to 217 °C. In turn, `Cc1cc(CNC(=O)c2cc3c(O)cccc3n2Cc2cccc(C(=N)N)c2)cc(C(F)(F)F)c1` (as salt: trifluoroacetic acid salt) [Example 112] came in with a melting point of 126 °C. Take `CN(C)c1ccc(CNC(=O)c2cc3cc(Cl)ccc3n2Cc2cccc(/C(N)=N/O)c2)cc1` [Example 52, 1-(3-Hydroxyamidino-benzyl)-5-chloro-1H-indole-2-carboxylic acid (4-dimethylamino)-benzyl amide]: the melting point is 200 °C (dec.). Then `CC(=O)O.CC(=O)[O-].C[N+](C)(C)c1ccc(CNC(=O)c2cc3cc(Br)ccc3n2Cc2cccc(C(=N)N)c2)cc1`, with 86 °C (dec.); and `COc1cccc2c1cc(C(=O)NCCc1ccncc1)n2Cc1cccc(/C(N)=N/O)c1` [Example 49, 1-(3-Hydroxyamidino-benzyl)-4-methoxy-1H-indole-2-carboxylic acid 2-(4-pyridyl)-ethyl amide], with 220 to 222 °C. In the case of `N=C(N)c1cccc(Cn2c(C(=O)NCc3cc(Cl)cc(Cl)c3)cc3c(O)cccc32)c1` (as salt: trifluoroacetic acid salt) [Example 120], the melting point was determined as 117 °C. Then `C[N+](C)(C)c1ccc(CNC(=O)c2cc3cc(Cl)ccc3n2Cc2cccc(C(=N)N)c2)cc1.O=C(O)C(F)(F)F.O=C([O-])C(F)(F)F`, with 112 °C (dec.). With `Cl.N=C(N)c1ccc(Cn2c(C(=O)NCc3ccccc3)cc3ccccc32)cc1`, the melting point is 266 to 268 °C (dec.). Turning to `CN(C)c1ccc(CNC(=O)c2cc3cc(F)ccc3n2Cc2cccc(C(=N)N)c2)cc1.O=C(O)C(F)(F)F.O=C(O)C(F)(F)F`, the melting point is 90 °C (dec.). For `CC(=O)O.N=C(N)c1cccc(Cn2c(C(=O)NCc3ccccc3)cc3ccccc32)c1`, the melting point is 266 to 268 °C (dec.). On to `CC[N+](C)(C)c1ccc(CNC(=O)c2cc3cc(F)ccc3n2Cc2cccc(C(=N)N)c2)cc1.O=C(O)C(F)(F)F.O=C([O-])C(F)(F)F`, for which the melting point was 73 to 75 °C (dec.). `COC(=O)c1cccc(CNC(=O)c2cc3c(O)cccc3n2Cc2cccc(C(=N)N)c2)c1` (as salt: trifluoroacetic acid salt) [Example 132] had a melting point of 95 °C. Consider `CC(=O)O.CC(=O)O.N=C(N)c1cccc(COC(=O)c2cc3cc(OCc4ccccc4)ccc3n2Cc2cccc(C(=N)N)c2)c1`, for which the melting point is 147 °C (dec.). On to `C[N+](C)(C)c1ccc(CNC(=O)c2cc3cc(N)ccc3n2Cc2cccc(C(=N)N)c2)cc1.O=C(O)C(F)(F)F.O=C(O)C(F)(F)F.O=C([O-])C(F)(F)F`, for which the melting point was 114 °C (dec.). The compound `C[n+]1ccc(CNC(=O)c2cc3cc(N)ccc3n2Cc2cccc(C(=N)N)c2)cc1.O=C(O)C(F)(F)F.O=C(O)C(F)(F)F.O=C([O-])C(F)(F)F` had a melting point of 115 °C.

In the case of `C[N+](C)(C)c1ccc(CNC(=O)c2cc3cc(F)ccc3n2Cc2cccc(C(=N)N)c2)cc1.O=C(O)C(F)(F)F.O=C([O-])C(F)(F)F`, the melting point was in the range of 120 to 124 °C. Take `Cc1cccc2c1cc(C(=O)NCc1ccc([N+](C)(C)C)cc1)n2Cc1cccc(C(=N)N)c1.O=C(O)C(F)(F)F.O=C([O-])C(F)(F)F` [Example 35, [4-({[1-(3-Amidino-benzyl)-4-methyl-1H-indole-2-carbonyl]-amino}-methyl)-phenyl]-trimethyl-ammonium trifluoroacetate trifluoroacetic acid salt]: the melting point was 81 °C (dec.). Consider `N=C(N)c1cccc(Cn2c(C(N)=O)cc3ccccc32)c1.O=C(O)C(F)(F)F`, for which the melting point is 278 °C (dec.).
